According to patent US7833795B2, “Assessment of cardiovascular risk using isoprostane biomarkers and COX-2 selective inhibitors” (The Trustees of the University of Pennsylvania, priority 2004, dated 2010):

Tests used:
Male Fisher 344 rats [1] = experiment: Plasma free plus esterified 8-iso-PGF2α by GC/MS; assay type: in vivo, rat; details: for Free plus esterified 8-iso-PGF2a (by GC-MS): plasma
Experimental: (§1) Animals and treatment protocol: Male Fisher 344 rats (260-280 g) obtained from Charles River Laboratories (Raleigh, N.C.) were used in all experiments. The animals were housed three to a cage. Autoclaved hardwood bedding was used in solid-bottom polycarbonate cages with filter tops. Animal rooms were maintained at 20-25° C. with 35-70% relative humidity with alternating 12-hour light and dark cycles. The rats had free access to deionized, reverse-osmosis-treated water and received autoclaved NIH 31 rodent chow (Zeigler Bros., Gardners, Pa.) ad libitum. For all experiments, rats were fasted overnight and then administered intraperitoneal injections of carbon tetrachloride in canola oil. Control rats received an equal volume of canola oil. Fasting continued throughout the experiment. Rats were anesthetized with Nembutal (0.1 ml/100 g body weight) and 5 ml blood was removed from the dorsal aorta proximal to its bifurcation into the common iliac arteries.
(§2) Indomethacin pretreatment: The indomethacin regimen used has been previously shown to inhibit COX activity in rats by 90% (dose of 5 mg/kg s.c. 24 hours, 12 hours, and 2 hours prior to the injection of CCl4) (Jackson, 1989, J. Pharmacol. Exp. Ther. 250: 9-21). An additional booster dose was injected 8 hours after the last injection of CCl4 for the measurements performed 16 hours after treatment with CCl4.
(§3) Meclofenamic acid pretreatment: Meclofenamic acid was injected at a dose of 5 mg/kg i.p. 12 h and 2 h prior to the injection of CCl4.
(§4) Carbon tetrachloride (CCL4) treatment: Animals from each of the three dose groups (Control-canola oil, 120 mg/kg CCl4 i.p. and 1200 mg/kg CCl4 i.p.) were investigated at three time points (2, 7, and 16 hours after CCl4 injection). Indomethacin-pretreated rats were also investigated at the same three time points, and the meclofenamic acid-pretreated rats were investigated at one time point (7 hours). Each group consisted of five rats for each analysis, except the meclofenamic acid pretreatment group which consisted of six rats. Animal treatment, sample preparation, assessment of liver histology and serum enzyme activities are described elsewhere (Kadiiska et al., 2000, Free Radic. Biol. Med. 28: 838-845; Jackson, 1989, J. Pharmacol. Exp. Ther. 250: 9-21) and were carried out at NIEHS, Research Triangle Park, N.C.
Plasma sample preparation: Blood (5 ml) was drawn through single draw Vacutainer® needles (21 Gauge) into open Vacutainer® blood collection tubes containing heparin. The tubes were gently inverted 2-3 times for mixing and immediately placed on ice. Blood was centrifuged (2,000 rpm for 10 minutes at 4° C.) no more than 30 minutes after collection, and the plasma was collected, frozen on dry ice and stored at −70° C.
Measurement of the sum of free plus esterified 8-iso-PGF2α in plasma were performed using an improved GC/MS-based analysis for the quantitation of this isoprostane in plasma. A detailed protocol for this extraction and quantitation has been published (Parker et al., 2001, Mol. Biotechnol. 18: 105-118). Measurements of the sum of free plus esterified 8-iso-PGF2α in plasma were performed at NIEHS, Research Triangle Park, N.C.

Male Fisher 344 rats [2] = experiment: Urinary MDA by HPLC with spectrophotometry; assay type: in vivo, rat; details: for MDA (by HPLC with spectrophotometry): urine
Experimental: as §1, §2, §3, §4
(§5) Urine sample preparation: The day prior to treatment, both experimental and control animals were placed in stainless steel metabolic cages especially designed for urine collection. For Experimental Example 2, animals were placed in metabolic cages immediately after the last injection of indomethacin or meclofenamic acid. Urine was collected (in dark vials) from the animals during the following intervals: 2 to 7 hours and 7 to 16 hours after CCl4 or canola oil (controls) treatment. Urine samples from indomethacin-pretreated rats were collected from 2 to 7 hours and 7 to 16 hours after the injection of CCl4, whereas samples from meclofenamic-acid-pretreated rats were collected only from 2 to 7 hours after the injection. All urine samples were immediately frozen on dry ice and stored at −70° C.
Urinary MDA was analyzed using high pressure liquid chromatography (HPLC). To 500 μl urine samples, 25 μl BHT and 750 μl 0.5% TBA solution were added, in this order. Samples were incubated at 60° C. for 60 minutes. After cooling, chloroform (750 μl) was added and mixed well. Following centrifugation, the aqueous layer was removed and used for HPLC analysis (column […]; mobile phase, 6:4(v/v) 0.04 M acetate buffer (pH 5.5)/MeOH; detection, 532 nm). The procedure was developed and performed by OXIS Research, Portland, Oreg.

Male Fisher 344 rats [3] = experiment: Urinary free plus esterified 8-iso-PGF2α by immunoassay; assay type: in vivo, rat; details: for Free plus esterified 8-iso PGF2a (by immunoassay): urine
Experimental: as §1, §2, §3, §4, §5
Urinary 8-iso-PGF2α concentrations were measured by the competitive immunoassay procedure in which 8-iso-PGF2α conjugated to alkaline phosphatase competed with the test analyte for antibody specific for the isoprostane. The anti-8-iso-PGF2α antibody was captured by anti-Fc antibodies immobilized on a microtiter plate. The assay was developed by Assay Designs, Inc., Ann Arbor, Mich. and performed at OXIS Research, Portland, Oreg.
In an additional method not recited in Example 1, an immunoassay was used to measure the sum of free plus esterified 8-iso-PGF2α. The immunoassay used anti-8-iso-PGF2α antibody was developed by Assay Designs, Inc., Ann Arbor, Mich., and performed at Oxis Research, Portland, Oreg.

Male Fisher 344 rats [4] = experiment: Urinary 8-OHdG by immunoassay; assay type: in vivo, rat; details: for 8-OHdG (by immunoassay): urine
Experimental: as §1, §4, §5
8-Hydroxy-2′-deoxyguanosine (8-OHdG) was measured using an immunoassay. In brief, 8-OHdG was determined using a microtiter ELISA method where the test analyte competed with monoclonal antibody against 8-OHdG for 8-OHdG bound to the plate. After incubation and washing, an anti-mouse second antibody conjugated to horseradish peroxidase was used to determine the bound monoclonal antibody. The color yield is […] to the analyte concentration. Data reduction was by 4-parameter logistic curve fit. The assay was developed and measurements were performed by Oxis Research, Portland, Oreg.

Male Fisher 344 rats [5] = details: cited from earlier work

## ClC(Cl)(Cl)Cl [CCl4, Carbon tetrachloride]
Male Fisher 344 rats [1]; CCl4 120 mg/kg i.p., 2 h
  Free plus esterified 8-iso-PGF2a (by GC-MS): 3.07 ng/mL
Male Fisher 344 rats [1]; CCl4 120 mg/kg i.p., 7 h
  Free plus esterified 8-iso-PGF2a (by GC-MS): 1.79 ng/mL
Male Fisher 344 rats [1]; CCl4 120 mg/kg i.p., 16 h
  Free plus esterified 8-iso-PGF2a (by GC-MS): 0.93 ng/mL
Male Fisher 344 rats [1]; CCl4 1200 mg/kg i.p., 2 h
  Free plus esterified 8-iso-PGF2a (by GC-MS): 6.63 ng/mL
Male Fisher 344 rats [1]; CCl4 1200 mg/kg i.p., 7 h
  Free plus esterified 8-iso-PGF2a (by GC-MS): 4.39 ng/mL
Male Fisher 344 rats [1]; CCl4 1200 mg/kg i.p., 16 h
  Free plus esterified 8-iso-PGF2a (by GC-MS): 1.68 ng/mL
Male Fisher 344 rats [1]; high dose CCl4, 2 h
  increase of free plus esterified plasma 8-iso-PGF2α: 15 fold
Male Fisher 344 rats [1]; high dose CCl4, 7 h
  increase of free plus esterified plasma 8-iso-PGF2α: 10 fold
Male Fisher 344 rats [1]; high dose CCl4, 16 h
  increase of free plus esterified plasma 8-iso-PGF2α: 4 fold
Male Fisher 344 rats [2]; CCl4 120 mg/kg i.p., 7 h
  MDA (by HPLC with spectrophotometry): 2.01 nmol/mg creatinine
Male Fisher 344 rats [2]; CCl4 120 mg/kg i.p., 16 h
  MDA (by HPLC with spectrophotometry): 1.54 nmol/mg creatinine
Male Fisher 344 rats [2]; CCl4 1200 mg/kg i.p., 7 h
  MDA (by HPLC with spectrophotometry): 2.61 nmol/mg creatinine
Male Fisher 344 rats [2]; CCl4 1200 mg/kg i.p., 16 h
  MDA (by HPLC with spectrophotometry): 2.16 nmol/mg creatinine
Male Fisher 344 rats [2]; higher dose of CCl4, urine collected 7 hours after treatment
  increase of urinary MDA: 3 fold
Male Fisher 344 rats [3]; CCl4 120 mg/kg i.p., 7 h
  Free plus esterified 8-iso PGF2a (by immunoassay): 25.7 ng/mgcreatinine
Male Fisher 344 rats [3]; CCl4 120 mg/kg i.p., 16 h
  Free plus esterified 8-iso PGF2a (by immunoassay): 17.4 ng/mgcreatinine
Male Fisher 344 rats [3]; CCl4 1200 mg/kg i.p., 7 h
  Free plus esterified 8-iso PGF2a (by immunoassay): 57.0 ng/mgcreatinine
Male Fisher 344 rats [3]; CCl4 1200 mg/kg i.p., 16 h
  Free plus esterified 8-iso PGF2a (by immunoassay): 30.4 ng/mgcreatinine
Male Fisher 344 rats [3]; high dose CCl4, 7 h
  increase of urinary 8-iso-PGF2α (immunoassay): 10 fold
Male Fisher 344 rats [3]; high dose CCl4, 16 h
  increase of urinary 8-iso-PGF2α (immunoassay): 6 fold
Male Fisher 344 rats [4]; CCl4 120 mg/kg i.p., 7 h
  8-OHdG (by immunoassay): 42 ng/mg creatinine
Male Fisher 344 rats [4]; CCl4 120 mg/kg i.p., 16 h
  8-OHdG (by immunoassay): 83 ng/mg creatinine
Male Fisher 344 rats [4]; CCl4 1200 mg/kg i.p., 7 h
  8-OHdG (by immunoassay): 165 ng/mg creatinine
Male Fisher 344 rats [4]; CCl4 1200 mg/kg i.p., 16 h
  8-OHdG (by immunoassay): 60 ng/mg creatinine
Male Fisher 344 rats [4]; high dose CCl4, 7 h
  increase of urinary 8-OHdG: 7 fold
Male Fisher 344 rats [4]; high dose CCl4, 16 h
  increase of urinary 8-OHdG: 3 fold
Male Fisher 344 rats [5]; CCl4 120 and 1200 mg/kg, 2, 7, 16 h
  serum liver enzyme activities: significant increase in many of the enzyme activities studied was observed at the high dose at 2 hours and for both doses at 7 and 16 hours
Male Fisher 344 rats [5]; both doses of CCl4, each time point
  hepatic effects, histology: diffuse hepatocyte degeneration and infiltration of inflammatory cells associated with necrosis
